Laboratory results reported in ChEMBL document CHEMBL1138844, “Synthesis and biological evaluation of 1-aryl-4,5-dihydro-1H-pyrazolo[3,4-d]pyrimidin-4-one inhibitors of cyclin-dependent kinases” (J Med Chem, 2004).

Tests used:
[1] = target: Cyclin-dependent kinase 4/cyclin D1 (Homo sapiens, UniProt P11802); assay: Inhibition of Cyclin-dependent kinase 4-cyclin D1; type: protein-complex assay
[2] = target: Cyclin-dependent kinase 2/cyclin E (Homo sapiens, UniProt P24941)
Description: Inhibition of Cyclin-dependent kinase 2-cyclin E

HCT-116 = assay: Inhibition of human colon carcinoma cell (HCT116) proliferation; type: functional, cell-based
[3] = target: Cyclin-dependent kinase 1/cyclin B (Homo sapiens, UniProt P06493); assay: Inhibition of Cyclin-dependent kinase 1-cyclin B; type: protein-complex assay

Chain of Cyclin-dependent kinase 4/cyclin D1 (P11802 whole entry): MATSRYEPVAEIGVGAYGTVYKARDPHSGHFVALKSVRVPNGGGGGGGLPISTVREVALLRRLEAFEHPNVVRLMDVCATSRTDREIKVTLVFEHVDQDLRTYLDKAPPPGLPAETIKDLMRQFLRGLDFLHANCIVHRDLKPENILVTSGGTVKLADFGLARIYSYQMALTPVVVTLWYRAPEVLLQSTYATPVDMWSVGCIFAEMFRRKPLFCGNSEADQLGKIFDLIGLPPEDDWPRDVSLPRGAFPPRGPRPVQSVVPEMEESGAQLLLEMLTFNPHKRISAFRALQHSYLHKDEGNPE
Chain of Cyclin-dependent kinase 4/cyclin D1 (P24385 whole entry, further chain): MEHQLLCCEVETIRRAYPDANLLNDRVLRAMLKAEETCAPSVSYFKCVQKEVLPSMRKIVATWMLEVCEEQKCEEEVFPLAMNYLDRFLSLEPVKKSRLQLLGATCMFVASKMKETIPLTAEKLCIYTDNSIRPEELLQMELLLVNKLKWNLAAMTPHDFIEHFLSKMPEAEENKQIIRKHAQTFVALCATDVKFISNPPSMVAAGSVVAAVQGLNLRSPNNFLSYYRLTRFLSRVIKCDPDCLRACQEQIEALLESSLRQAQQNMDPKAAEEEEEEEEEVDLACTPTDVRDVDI

SMILES | IC50 [1] [µM] | IC50 [2] [µM] | IC50 (HCT-116) [µM] | IC50 [3] [µM]
CSc1nn(-c2c(Cl)cc(Cl)cc2Cl)c2nc(CF)[nH]c(=O)c12 | 44 | 1.6 |  | 
CCc1nn(-c2c(Cl)cc(Cl)cc2Cl)c2nc(-c3ccc(OC)c(OC)c3)[nH]c(=O)c12 | > 21 | 0.58 |  | 
CSc1nn(-c2ccc(C)cc2C)c2nc(C)[nH]c(=O)c12 | 48 |  |  | 
CCc1nn(-c2c(Cl)cc(Cl)cc2Cl)c2nc(Cc3ccc(Br)cc3)[nH]c(=O)c12 | > 1.2 | 0.05 | 2.3 | 
CCc1nn(-c2c(Cl)cc(Cl)cc2Cl)c2nc(Cc3ccccc3)[nH]c(=O)c12 | 3 | 0.02 | 0.6 | 0.26
Cc1nc2c(c(CCO)nn2-c2c(Cl)cc(Cl)cc2Cl)c(=O)[nH]1 | > 140 |  |  | 
CSc1nn(-c2ccc(C(C)C)cc2)c2nc(C)[nH]c(=O)c12 | > 160 |  |  | 
CCc1nc2c(c(CC)nn2-c2c(Cl)cc(Cl)cc2Cl)c(=O)[nH]1 | 0.94 | 0.09 |  | 
CCc1nn(-c2c(Cl)cc(Cl)cc2Cl)c2nc(Cc3cc(O)cc(O)c3)[nH]c(=O)c12 | 0.05 | 0.02 | 0.3 | 
CSc1nn(-c2c(Cl)cc(C(F)(F)F)cc2Cl)c2nc(C)[nH]c(=O)c12 | 8 |  |  | 
CSc1nn(-c2c(Cl)cc(Cl)cc2Cl)c2nc(Cc3cccs3)[nH]c(=O)c12 | 20 |  |  | 
CCc1nn(-c2c(Cl)cc(Cl)cc2Cl)c2nc(CCc3ccccc3)[nH]c(=O)c12 | 7.1 | 1.8 |  | 
CCc1nn(-c2c(Cl)cc(Cl)cc2Cl)c2nc(Cc3cccc(NS(C)(=O)=O)c3)[nH]c(=O)c12 | 0.16 | 0.26 | 0.47 | 
CSc1nn(CCO)c2nc(C)[nH]c(=O)c12 | > 210 |  |  | 
CCc1nn(-c2c(Cl)cc(Cl)cc2Cl)c2nc(Cc3ccc(OC)c(C)c3)[nH]c(=O)c12 | > 2.1 | 0.06 | 2.1 | 0.87
CCc1nn(-c2c(Cl)cc(Cl)cc2Cl)c2nc(CCCCO)[nH]c(=O)c12 | 2.4 | 0.25 |  | 
CSc1nn(-c2c(Cl)cc(Cl)cc2Cl)c2nc(C(C)O)[nH]c(=O)c12 (configuration not stated) | 27 |  |  | 
CSc1nn(-c2ccc(Cl)cc2C)c2nc(C)[nH]c(=O)c12 | 74 |  |  | 
CCc1nn(-c2c(Cl)cc(Cl)cc2Cl)c2nc(CC(C)C)[nH]c(=O)c12 | > 6.3 | 0.11 |  | 
CSc1nn(-c2ccc(Cl)cc2)c2nc(C)[nH]c(=O)c12 | > 160 |  |  | 
CSc1nn(C(C)(C)C)c2nc(C)[nH]c(=O)c12 | > 100 |  |  | 

SMILES | IC50 [1] [µM] | IC50 [2] [µM] | IC50 (HCT-116) [µM] | IC50 [3] [µM]
CCc1nn(-c2c(Cl)cc(Cl)cc2Cl)c2nc(C)[nH]c(=O)c12 | 1.1 | 0.14 |  | 
CSc1nn(-c2cccc(Cl)c2Cl)c2nc(C)[nH]c(=O)c12 | 50 |  |  | 
CCc1nn(-c2c(Cl)cc(Cl)cc2Cl)c2nc(Cc3cccnc3)[nH]c(=O)c12 | 1.3 | 0.01 | 0.3 | 0.22
Cc1nc2c(c(-c3ccccc3)nn2-c2c(Cl)cc(Cl)cc2Cl)c(=O)[nH]1 | > 120 |  |  | 
CCc1nn(-c2c(Cl)cc(Cl)cc2Cl)c2nc(Cc3ccc(C)c(OC)c3)[nH]c(=O)c12 | 2.1 | 0.11 | 9.5 | 
Cc1nc2c(c(Cc3ccccc3)nn2-c2c(Cl)cc(Cl)cc2Cl)c(=O)[nH]1 | > 48 |  |  | 
CSc1nn(-c2cc(Cl)ccc2Cl)c2nc(C)[nH]c(=O)c12 | 23 |  |  | 
CCc1nn(-c2c(Cl)cc(Cl)cc2Cl)c2c1S(=O)(=O)NC(C)=N2 | > 51 | > 13 |  | 
COc1ccccc1-n1nc(SC)c2c(=O)[nH]c(C)nc21 | > 83 |  |  | 
CSc1nn(-c2ccc(Cl)cc2Cl)c2nc(C)[nH]c(=O)c12 | 37 |  |  | 
Cc1nc2c(c(C)nn2-c2c(Cl)cc(Cl)cc2Cl)c(=O)[nH]1 | 3.5 |  |  | 
CCCCn1nc(SC)c2c(=O)[nH]c(C)nc21 | > 200 |  |  | 
CCCc1nn(-c2c(Cl)cc(Cl)cc2Cl)c2nc(C)[nH]c(=O)c12 | 5.7 |  |  | 
CCc1nn(-c2c(Cl)cc(Cl)cc2Cl)c2nc(Cc3ccc(O)c(O)c3)[nH]c(=O)c12 | 0.04 |  | 0.72 | 0.24
CSc1nn(-c2c(Cl)cc(Cl)cc2Cl)c2nc(CCN(C)C(=O)OC(C)(C)C)[nH]c(=O)c12 | > 48 | 19 |  | 
COC(=O)c1nc2c(c(SC)nn2-c2c(Cl)cc(Cl)cc2Cl)c(=O)[nH]1 | 240 |  |  | 
CCc1nn(-c2c(Cl)cc(Cl)cc2Cl)c2nc(Cc3cccc(OC)c3)[nH]c(=O)c12 | 5 | 0.03 | 1.7 | 0.41
CSc1nn(-c2cc(C(F)(F)F)ccc2Cl)c2nc(C)[nH]c(=O)c12 | 15 |  |  | 
CCc1nn(-c2c(Cl)cc(Cl)cc2Cl)c2nc(Cc3cccc(N)c3C)[nH]c(=O)c12 | > 2.2 | 0.01 | 0.19 | > 0.27
CNCc1nc(O)c2c(SC)nn(-c3c(Cl)cc(Cl)cc3Cl)c2n1 | > 57 |  |  | 
CNCCc1nc2c(c(SC)nn2-c2c(Cl)cc(Cl)cc2Cl)c(=O)[nH]1 | 28 | 6.6 |  | 
